The target in this assay is T1, human LAT2 (Homo sapiens, UniProt Q9UHI5).
T1 construct: expressed in transfected cells
T1 sequence (Q9UHI5 1-535): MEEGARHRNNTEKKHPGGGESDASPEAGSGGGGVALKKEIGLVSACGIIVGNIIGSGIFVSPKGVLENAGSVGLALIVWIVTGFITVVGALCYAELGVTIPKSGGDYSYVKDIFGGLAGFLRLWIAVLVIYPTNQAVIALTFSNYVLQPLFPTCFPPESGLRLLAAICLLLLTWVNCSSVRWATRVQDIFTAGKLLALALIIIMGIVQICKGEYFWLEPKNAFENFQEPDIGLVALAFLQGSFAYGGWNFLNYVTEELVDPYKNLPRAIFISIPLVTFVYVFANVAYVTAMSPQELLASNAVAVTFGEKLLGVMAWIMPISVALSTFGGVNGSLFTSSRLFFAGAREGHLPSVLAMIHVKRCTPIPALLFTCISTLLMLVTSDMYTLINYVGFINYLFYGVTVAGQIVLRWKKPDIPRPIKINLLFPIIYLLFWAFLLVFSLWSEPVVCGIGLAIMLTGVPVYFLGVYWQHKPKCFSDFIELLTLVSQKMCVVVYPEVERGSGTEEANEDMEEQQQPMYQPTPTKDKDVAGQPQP
T1 sequence (P08195 1-529 partner): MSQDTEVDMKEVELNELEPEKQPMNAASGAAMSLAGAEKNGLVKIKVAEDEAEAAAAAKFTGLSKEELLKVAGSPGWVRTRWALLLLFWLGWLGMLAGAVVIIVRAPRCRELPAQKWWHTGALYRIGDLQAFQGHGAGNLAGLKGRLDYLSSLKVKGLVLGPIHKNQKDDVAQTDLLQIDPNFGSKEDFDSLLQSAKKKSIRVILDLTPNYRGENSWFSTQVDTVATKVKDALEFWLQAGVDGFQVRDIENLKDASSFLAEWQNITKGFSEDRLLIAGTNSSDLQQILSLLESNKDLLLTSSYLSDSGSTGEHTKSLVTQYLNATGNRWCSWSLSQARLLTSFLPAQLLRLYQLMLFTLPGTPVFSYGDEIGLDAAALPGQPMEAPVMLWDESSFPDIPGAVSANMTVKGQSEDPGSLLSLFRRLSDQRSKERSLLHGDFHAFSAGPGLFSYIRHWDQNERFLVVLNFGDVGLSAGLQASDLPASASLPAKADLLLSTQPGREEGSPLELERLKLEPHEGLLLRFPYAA
Briefly: Inhibition of amino acid uptake in human LAT2 stably expressing cell line. Type of assay: cell-based. From the text:
A human LAT1 expression vector or a human LAT2 expression vector was transfected using Lipofectamine (registered trademark) 2000 (Invitrogen) into a human embryonic kidney cell line HEK293. G418-resistant HEK293 clones were selected, and among them, a clone showing human LAT1-specific amino acid uptake and a clone showing human LAT2-specific amino acid uptake were selected and established as a human LAT1 stably expressing cell line and a human LAT2 stably expressing cell line, respectively (Khunweeraphong et al. J Pharmacol Sci. 2012 Aug. 18; 119(4): 368-80. Epub 2012 Jul. 31).
The human LAT1 stably expressing cell line and the human LAT2 stably expressing cell line were seeded at 1.2×10^5 cells/well on separate collagen-coated 24-well plates, and after 48 hours, the cells were washed 3 times with an uptake buffer (Na^2+-free Hank's balanced salt solution (HBSS), pH 7.4) prewarmed at 37° C. Compound 10a, compound 10b or a positive control FAMT (fluoro-α-methyltyrosine) was added at 100 μM, and incubation was performed at 37° C. for 3 minutes. Cells not treated with any of these compounds were used as a negative control. After the incubation, 1 μM of [^14C]L-leucine or [^14C]alanine was added to the wells, [^14C]L-leucine or [^14C]alanine uptake was allowed to proceed for 1 minute, and the cells were washed 3 times with an ice-cold uptake buffer. Subsequently, 500 μL of 0.1 M NaOH was added to each well for cell lysis, 20 μL of the lysate was used for the measurement of the protein concentration, and the remaining lysate was used for the measurement of the intracellular radioactivity. The measured radioactivity was normalized to the protein concentration, and on the assumption that the amino acid uptake activity in the negative control was 100%, the percentage (%) of inhibition of amino acid uptake in the presence of each compound was calculated.
Using the same cell lines as described in Example 2, the compound of Example 1 was examined for the inhibitory effect on leucine or alanine uptake in the human LAT1 stably expressing cell line and the human LAT2 stably expressing cell line in the same manner as in Example 2. FAMT was used as the positive control. The compound of Example 1 or FAMT was added at 100 μM. Cells not treated with either of these compounds were used as a negative control. On the assumption that the amino acid uptake activity in the negative control (control) was 100%, the percentage (%) of inhibition of amino acid uptake in the presence of FAMT or the compound of Example 1 was calculated. In addition, the cancer cell selectivity was calculated as the ratio of the amino acid uptake activity in the human LAT2 stably expressing cell line relative to that in the human LAT1 stably expressing cell line.
In another experiment, the cells were treated with the compound of Example 1 at eight different concentrations (0.1, 1, 3, 10, 30, 100, 300 and 1000 μM), and the concentration causing 50% inhibition of amino acid uptake was calculated as the IC50 value.
A human LAT1 stably expressing cell line and a human LAT2 stably expressing cell line, each of which was the same as described in Example 2, were seeded at 1.2×10^5 cells/well, and after 48 hours, the cells were washed 3 times with an uptake buffer (Na^2+-free Hank's balanced salt solution (HBSS), pH 7.4) prewarmed at 37° C. The test compounds, L-tyrosine or the positive control FAMT (fluoro-α-methyltyrosine) was added at 30 μM, and incubation was performed at 37° C. for 3 minutes. Cells not treated with any of these compounds were used as a negative control. After the incubation, 1 μM of [^14C]L-leucine or [^14C]alanine was added to the wells, [^14C]L-leucine or [^14C]alanine uptake was allowed to proceed for 1 minute, and the cells were washed 3 times with an ice-cold uptake buffer. […]

For orientation: inhibition means the share of the control response that was lost under treatment. Broadly, the IC50 is the concentration that inhibits the measured activity by half. Low readings indicate higher potency, high ones lower potency. Regarding `NC(Cc1cc(OCCF)ccc1I)C(=O)O` (centres unmarked) [Example 1, 2-amino-3-(5-(2-fluoroethoxy)-2-iodophenyl)propanoic acid], the inhibition at 100 µM (HEK293, compound at 100 μM, human LAT2 stably expressing HEK293 cell line, 1 μM [14C]L-leucine or [14C]alanine, 1 min uptake, read-out: Percentage of inhibition of LAT2-mediated amino acid uptake) was determined as 55.1%. For the same compound, the concentration for half-maximal inhibition (IC50) (eight concentrations 0.1-1000 μM) is 84 µM.
